Assay results published in patent US12466812B2, “Pyridinyltriazine derivative having protein kinase inhibitory activity, and pharmaceutical composition for preventing, ameliorating, or treating cancer comprising same” (KOREA INSTITUTE OF SCIENCE AND TECHNOLOGY, priority 2019, dated 2025).
Each block holds one compound with its values, some of them ahead of it.

Experiments:
[1] = system: AN3-CA, a uterine cancer cell line; assay: Inhibitory activity against cancer cell proliferation (Experimental Example 2); format: cell-based; conditions: Homo sapiens, Table 2
[2] = target: FGFR3 mutant (K650E) (Homo sapiens, UniProt P22607, K650E); assay: Pan-FGFR mutant enzymatic activity; format: biochemical; conditions: mutant enzyme
FGFR3 mutant (K650E), sequence (P22607 23-806 K650E): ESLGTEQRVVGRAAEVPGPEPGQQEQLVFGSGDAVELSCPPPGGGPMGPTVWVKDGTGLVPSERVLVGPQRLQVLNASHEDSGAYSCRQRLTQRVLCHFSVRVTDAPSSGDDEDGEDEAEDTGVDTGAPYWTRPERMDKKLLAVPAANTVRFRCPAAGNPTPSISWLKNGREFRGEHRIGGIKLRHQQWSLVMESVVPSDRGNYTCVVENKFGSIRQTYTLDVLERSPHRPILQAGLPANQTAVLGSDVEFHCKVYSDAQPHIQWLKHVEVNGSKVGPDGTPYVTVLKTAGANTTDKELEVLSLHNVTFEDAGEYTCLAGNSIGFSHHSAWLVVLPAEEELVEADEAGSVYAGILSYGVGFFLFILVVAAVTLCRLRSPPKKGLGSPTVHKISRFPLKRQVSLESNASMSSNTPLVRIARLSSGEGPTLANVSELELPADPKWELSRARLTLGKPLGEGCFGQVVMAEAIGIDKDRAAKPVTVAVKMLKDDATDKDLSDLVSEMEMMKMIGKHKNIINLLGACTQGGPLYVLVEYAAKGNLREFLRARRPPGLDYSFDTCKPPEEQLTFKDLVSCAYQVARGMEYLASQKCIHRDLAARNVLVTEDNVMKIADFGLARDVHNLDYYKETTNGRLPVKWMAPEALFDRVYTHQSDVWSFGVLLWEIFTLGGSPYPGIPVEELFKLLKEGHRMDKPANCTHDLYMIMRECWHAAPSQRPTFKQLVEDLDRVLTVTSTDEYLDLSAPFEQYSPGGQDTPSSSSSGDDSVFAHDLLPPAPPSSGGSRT
Method: (§1) The inhibitory activity against pan-FGFR mutants of the compounds synthesized in Examples 1, 8, 13, 22, and 24 was measured, the inhibitory activity on each of enzymatic activity and cellular activity was evaluated, and the results are shown in Tables 3 and 4 below.

[3] = target: FGFR3 mutant (K650M) (Homo sapiens, UniProt P22607, K650M); assay: Pan-FGFR mutant enzymatic activity; format: biochemical; conditions: mutant enzyme
FGFR3 mutant (K650M), sequence (P22607 23-806 K650M): as the sequence (P22607 23-806 K650E) above, with E628M counted along it
Method: as §1

[4] = target: FGFR2 mutant (N549H) (Homo sapiens, UniProt P21802, N549H); assay: Pan-FGFR mutant enzymatic activity; format: biochemical; conditions: mutant enzyme
FGFR2 mutant (N549H), sequence (P21802 22-821 N549H): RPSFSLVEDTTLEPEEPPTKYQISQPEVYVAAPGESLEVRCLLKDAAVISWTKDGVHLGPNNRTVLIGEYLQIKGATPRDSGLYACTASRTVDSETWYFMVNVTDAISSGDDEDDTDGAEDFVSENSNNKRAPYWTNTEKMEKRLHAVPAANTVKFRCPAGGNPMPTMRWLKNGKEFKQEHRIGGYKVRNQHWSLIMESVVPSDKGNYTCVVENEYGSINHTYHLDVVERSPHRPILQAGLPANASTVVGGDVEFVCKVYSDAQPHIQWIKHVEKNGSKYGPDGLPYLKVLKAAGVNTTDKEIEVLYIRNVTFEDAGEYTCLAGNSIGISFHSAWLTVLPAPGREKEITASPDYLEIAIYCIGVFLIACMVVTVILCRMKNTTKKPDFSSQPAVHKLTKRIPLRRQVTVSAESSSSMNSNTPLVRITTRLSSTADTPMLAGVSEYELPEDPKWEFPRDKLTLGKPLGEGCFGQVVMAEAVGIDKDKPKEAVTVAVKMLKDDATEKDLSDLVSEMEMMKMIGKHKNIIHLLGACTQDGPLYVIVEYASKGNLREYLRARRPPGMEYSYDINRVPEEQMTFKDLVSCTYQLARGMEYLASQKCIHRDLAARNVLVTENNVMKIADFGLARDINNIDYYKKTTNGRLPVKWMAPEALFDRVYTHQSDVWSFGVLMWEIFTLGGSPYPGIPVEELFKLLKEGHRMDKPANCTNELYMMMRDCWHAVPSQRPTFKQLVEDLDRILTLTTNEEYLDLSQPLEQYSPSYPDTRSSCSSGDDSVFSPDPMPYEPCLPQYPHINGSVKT
Method: as §1

[5] = target: FGFR3 mutant (V555M) (Homo sapiens, UniProt P22607, V555M); assay: Pan-FGFR mutant enzymatic activity; format: biochemical; conditions: mutant enzyme
FGFR3 mutant (V555M), sequence (P22607 23-806 V555M): as the sequence (P22607 23-806 K650E) above, with V533M, E628K counted along it
Method: as §1

[6] = target: FGFR2 mutant (V564F) (Homo sapiens, UniProt P21802, V564F); assay: Pan-FGFR mutant enzymatic activity; format: biochemical; conditions: mutant enzyme
FGFR2 mutant (V564F), sequence (P21802 22-821 V564F): as the sequence (P21802 22-821 N549H) above, with H528N, V543F counted along it
Method: as §1

[7] = system: AN3-CA; assay: Pan-FGFR mutant cellular activity; format: cell-based; conditions: Homo sapiens, mutant cell, Table 4, read-out: GI50, AN3-CA (breast cancer cell line)
Method: as §1

[8] = system: UMUC3 (bladder cancer cell line); assay: Pan-FGFR mutant cellular activity; format: cell-based; conditions: Homo sapiens, Table 4
Method: as §1

[9] = system: KMS-11 (myeloma cell line); assay: Pan-FGFR mutant cellular activity; format: cell-based; conditions: Homo sapiens, Table 4
Method: as §1

[10] = system: J82 (bladder cancer cell line); assay: Pan-FGFR mutant cellular activity; format: cell-based; conditions: Table 4
Method: as §1

[11] = Microsomal stability; format: in vitro ADME; conditions: rat liver microsomes, based on sample taken at 0 minutes
[12] = Microsomal stability; format: in vitro ADME; conditions: human liver microsomes, based on sample taken at 0 minutes
[13] = In-vivo PK profile (mouse PK/ICR mice); conditions: plasma, ICR mice, PO 10 mg/kg
[14] = target: T1, CYP1A2 (Homo sapiens, UniProt P05177); assay: Inhibitory activity against CYP metabolic enzyme; format: in vitro ADME
T1 sequence (P05177 1-516): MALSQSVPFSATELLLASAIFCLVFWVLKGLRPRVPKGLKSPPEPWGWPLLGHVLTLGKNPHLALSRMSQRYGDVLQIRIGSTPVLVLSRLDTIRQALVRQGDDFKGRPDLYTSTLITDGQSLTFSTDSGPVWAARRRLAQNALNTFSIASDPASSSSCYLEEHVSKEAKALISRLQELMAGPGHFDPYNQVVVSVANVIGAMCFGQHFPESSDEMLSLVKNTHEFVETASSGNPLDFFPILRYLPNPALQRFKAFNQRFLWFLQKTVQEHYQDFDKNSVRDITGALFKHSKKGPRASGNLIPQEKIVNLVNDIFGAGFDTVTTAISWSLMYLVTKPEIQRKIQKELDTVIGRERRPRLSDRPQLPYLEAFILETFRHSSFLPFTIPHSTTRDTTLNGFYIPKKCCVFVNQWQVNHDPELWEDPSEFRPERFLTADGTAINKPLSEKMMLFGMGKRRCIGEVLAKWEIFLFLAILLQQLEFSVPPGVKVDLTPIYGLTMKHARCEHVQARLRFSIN
Method: (§2) In order to determine whether or not there is a possibility that the compounds synthesized in Examples 1, 22, and 24 of the present invention can cause side effects of drug interaction, the rate (%) of inhibition against 5 major metabolic enzymes (CYP1A2, CYP2C9, CYP2C19, CYP2D6, and CYP3A4) among CYPs (cytochrome P450), which are enzymes involved in oxidative metabolism of drugs, was measured. […] That is, it can be seen that the compound of the present invention has a low possibility of causing side effects of drug interaction.

[15] = target: CYP2D6 (Homo sapiens, UniProt P10635); assay: Inhibitory activity against CYP metabolic enzyme; format: in vitro ADME
CYP2D6, sequence (P10635 whole entry): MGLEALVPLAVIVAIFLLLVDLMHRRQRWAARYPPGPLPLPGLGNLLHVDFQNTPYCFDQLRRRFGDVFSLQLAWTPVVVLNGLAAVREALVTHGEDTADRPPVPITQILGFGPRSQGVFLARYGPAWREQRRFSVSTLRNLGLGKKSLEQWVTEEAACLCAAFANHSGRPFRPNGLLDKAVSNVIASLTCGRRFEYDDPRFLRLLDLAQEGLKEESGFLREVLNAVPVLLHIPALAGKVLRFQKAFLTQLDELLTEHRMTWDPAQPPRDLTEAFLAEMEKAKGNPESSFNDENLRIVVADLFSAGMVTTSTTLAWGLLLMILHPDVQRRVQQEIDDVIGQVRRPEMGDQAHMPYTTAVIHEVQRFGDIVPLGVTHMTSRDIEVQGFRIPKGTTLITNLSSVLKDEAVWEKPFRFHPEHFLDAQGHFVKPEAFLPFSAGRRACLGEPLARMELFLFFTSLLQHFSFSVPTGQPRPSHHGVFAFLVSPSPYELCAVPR
Method: as §2

[16] = target: CYP3A4 (Homo sapiens, UniProt P08684); assay: Inhibitory activity against CYP metabolic enzyme; format: in vitro ADME
CYP3A4, sequence (P08684 whole entry): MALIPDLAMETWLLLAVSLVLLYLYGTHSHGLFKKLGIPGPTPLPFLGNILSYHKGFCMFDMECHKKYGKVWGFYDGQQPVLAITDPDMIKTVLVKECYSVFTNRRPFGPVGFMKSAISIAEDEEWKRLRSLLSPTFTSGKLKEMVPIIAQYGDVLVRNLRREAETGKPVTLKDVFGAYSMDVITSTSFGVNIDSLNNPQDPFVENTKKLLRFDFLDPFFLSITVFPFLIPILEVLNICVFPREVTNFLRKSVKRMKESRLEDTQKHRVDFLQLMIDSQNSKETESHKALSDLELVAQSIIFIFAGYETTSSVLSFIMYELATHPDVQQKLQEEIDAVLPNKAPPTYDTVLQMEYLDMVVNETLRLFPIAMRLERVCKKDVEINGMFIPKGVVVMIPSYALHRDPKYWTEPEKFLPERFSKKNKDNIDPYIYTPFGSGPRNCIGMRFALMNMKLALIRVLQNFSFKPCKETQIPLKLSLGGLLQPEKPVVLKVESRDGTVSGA
Method: as §2

[17] = target: CYP2C19 (Homo sapiens, UniProt P33261); assay: Inhibitory activity against CYP metabolic enzyme; format: in vitro ADME
CYP2C19, sequence (P33261 whole entry): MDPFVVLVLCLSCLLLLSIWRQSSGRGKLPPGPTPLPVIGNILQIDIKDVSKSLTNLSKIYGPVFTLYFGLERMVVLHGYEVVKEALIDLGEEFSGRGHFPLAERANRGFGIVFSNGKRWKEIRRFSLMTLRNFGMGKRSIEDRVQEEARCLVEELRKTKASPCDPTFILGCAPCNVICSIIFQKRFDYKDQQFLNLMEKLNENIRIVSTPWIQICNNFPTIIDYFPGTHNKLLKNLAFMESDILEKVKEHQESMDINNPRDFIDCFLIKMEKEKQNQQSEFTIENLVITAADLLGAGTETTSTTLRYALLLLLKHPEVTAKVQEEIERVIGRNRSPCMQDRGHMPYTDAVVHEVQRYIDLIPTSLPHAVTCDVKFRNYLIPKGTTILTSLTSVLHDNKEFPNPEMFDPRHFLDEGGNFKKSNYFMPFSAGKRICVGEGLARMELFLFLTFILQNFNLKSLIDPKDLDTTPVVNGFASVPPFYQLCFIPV
Method: as §2

[18] = Microsomal stability; format: in vitro ADME; conditions: dog liver microsomes, based on sample taken at 0 minutes
[19] = Microsomal stability; format: in vitro ADME; conditions: mouse liver microsomes, based on sample taken at 0 minutes

SMILES: COc1cc(OC)c(Cl)c(Nc2ncccc2-c2ncnc(N)n2)c1Cl [Example 2, 4-(2-((2,6-dichloro-3,5-dimethoxyphenyl)amino)pyridin-3-yl)-1,3,5-triazin-2-amine]
GI50 [1]: < 1000 nM

SMILES: COc1cc(OC)c(Cl)c(Nc2ncccc2-c2ncnc(NCCN(C)C)n2)c1Cl [Example 3, N^1-(4-(2-((2,6-dichloro-3,5-dimethoxyphenyl)amino)pyridin-3-yl)-1,3,5-triazin-2-yl)-N^2,N^2-dimethylethane-1,2-diamine]
GI50 [1]: 1000 to 10000 nM

SMILES: COc1cc(OC)c(Cl)c(Nc2ncccc2-c2ncnc(Nc3ccccc3)n2)c1Cl [Example 4, 4-(2-((2,6-dichloro-3,5-dimethoxyphenyl)amino)pyridin-3-yl)-N-phenyl-1,3,5-triazin-2-amine]
GI50 [1]: < 1000 nM

SMILES: COc1ccccc1Nc1ncnc(-c2cccnc2Nc2c(Cl)c(OC)cc(OC)c2Cl)n1 [Example 5]
GI50 [1]: 1000 to 10000 nM

SMILES: COc1cccc(Nc2ncnc(-c3cccnc3Nc3c(Cl)c(OC)cc(OC)c3Cl)n2)c1 [Example 6]
GI50 [1]: < 1000 nM

SMILES: COc1cc(OC)c(Cl)c(Nc2ncccc2-c2ncnc(Nc3ccc(N(C)C)cc3)n2)c1Cl [Example 7, N^1-(4-(2-((2,6-dichloro-3,5-dimethoxyphenyl)amino)pyridin-3-yl)-1,3,5-triazin-2-yl)-N^4,N^4-dimethylbenzene-1,4-diamine]
GI50 [1]: < 1000 nM

SMILES: CCN1CCN(c2cccc(Nc3ncnc(-c4cccnc4Nc4c(Cl)c(OC)cc(OC)c4Cl)n3)c2)CC1 [Example 8]
GI50 [1]: < 1000 nM | IC50 [2]: < 100 nM | IC50 [3]: < 100 nM | IC50 [4]: < 100 nM | IC50 [5]: 100 to 1000 nM | IC50 [6]: 100 to 1000 nM | GI50 [7]: < 1000 nM | GI50 [8]: 1000 to 10000 nM | GI50 [9]: < 1000 nM | GI50 [10]: 1000 to 10000 nM

SMILES: COc1cc(OC)c(Cl)c(Nc2ncccc2-c2ncnc(Nc3ccc(N4CCOCC4)cc3)n2)c1Cl [Example 9]
GI50 [1]: 1000 to 10000 nM

SMILES: COc1cc(OC)c(Cl)c(Nc2ncccc2-c2ncnc(Nc3ccc(N4CCOCC4)nc3)n2)c1Cl [Example 10]
GI50 [1]: < 1000 nM

SMILES: COc1cc(OC)c(Cl)c(Nc2ncccc2-c2ncnc(Nc3ccc(N4CCN(C(C)=O)CC4)cc3)n2)c1Cl [Example 11, 1-(4-(4-((4-(2-((2,6-dichloro-3,5-dimethoxyphenyl)amino)pyridin-3-yl)-1,3,5-triazin-2-yl)amino)phenyl)piperazin-1-yl)ethan-1-one]
GI50 [1]: < 1000 nM

SMILES: COc1cc(OC)c(Cl)c(Nc2ncccc2-c2ncnc(Nc3ccc(N4CCC(O)CC4)cc3)n2)c1Cl [Example 12]
GI50 [1]: < 1000 nM

Further lines, with some results ahead:

GI50 [1]: < 1000 nM | IC50 [2]: < 100 nM | IC50 [3]: < 100 nM | IC50 [4]: < 100 nM | IC50 [5]: 100 to 1000 nM | IC50 [6]: 100 to 1000 nM | GI50 [8]: 1000 to 10000 nM | GI50 [9]: < 1000 nM | GI50 [10]: < 1000 nM
SMILES: COc1cc(OC)c(Cl)c(Nc2ncccc2-c2ncnc(Nc3ccc(N4C[C@@H](C)N[C@@H](C)C4)cc3)n2)c1Cl [Example 13]
GI50 [7]: < 1000 nM

GI50 [1]: < 1000 nM
SMILES: COc1cc(N2CCN(C)CC2)ccc1Nc1ncnc(-c2cccnc2Nc2c(Cl)c(OC)cc(OC)c2Cl)n1 [Example 14]

GI50 [1]: > 10000 nM
SMILES: COc1cc(N2CCOCC2)ccc1Nc1ncnc(-c2cccnc2Nc2c(Cl)c(OC)cc(OC)c2Cl)n1 [Example 15]

GI50 [1]: > 10000 nM
SMILES: COc1cc(OC)c(Cl)c(Nc2ncccc2-c2ncnc(Nc3ccc(N4CCOCC4)nc3OC)n2)c1Cl [Example 16]

GI50 [1]: < 1000 nM
SMILES: COc1cc(N2C[C@@H](C)N[C@@H](C)C2)ccc1Nc1ncnc(-c2cccnc2Nc2c(Cl)c(OC)cc(OC)c2Cl)n1 [Example 17]

GI50 [1]: < 1000 nM
SMILES: COc1cc(OC)c(Cl)c(Nc2ncccc2-c2ncnc(Nc3cnn(C)c3)n2)c1Cl [Example 18]

GI50 [1]: > 10000 nM
SMILES: C=CCn1cc(Nc2ncnc(-c3cccnc3Nc3c(Cl)c(OC)cc(OC)c3Cl)n2)cn1 [Example 19, N-(1-allyl-1H-pyrazol-4-yl)-4-(2-((2,6-dichloro-3,5-dimethoxyphenyl)amino)pyridin-3-yl)-1,3,5-triazin-2-amine]

GI50 [1]: < 1000 nM
SMILES: COc1cc(OC)c(Cl)c(Nc2ncccc2-c2ncnc(Nc3cnn(CCCN(C)C)c3)n2)c1Cl [Example 20, 4-(2-((2,6-dichloro-3,5-dimethoxyphenyl)amino)pyridin-3-yl)-N-(1-(3-(dimethylamino)propyl)-1H-pyrazol-4-yl)-1,3,5-triazin-2-amine]

GI50 [1]: < 1000 nM
SMILES: COc1cc(OC)c(Cl)c(Nc2ncccc2-c2ncnc(Nc3cnn(C4CCOCC4)c3)n2)c1Cl [Example 21, 4-(2-((2,6-dichloro-3,5-dimethoxyphenyl)amino)pyridin-3-yl)-N-(1-(tetrahydro-2H-pyran-4-yl)-1H-pyrazol-4-yl)-1,3,5-triazin-2-amine]

GI50 [1]: < 1000 nM
SMILES: COc1cc(OC)c(Cl)c(Nc2ncccc2-c2ncnc(Nc3cnn(C4CCN(C(=O)OC(C)(C)C)CC4)c3)n2)c1Cl [Example 23, Tert-butyl 4-(4-((4-(2-((2,6-dichloro-3,5-dimethoxyphenyl)amino)pyridin-3-yl)-1,3,5-triazin-2-yl)amino)-1H-pyrazol-1-yl) piperidine-1-carboxylate]

remaining (%) after reaction with the microsome, Rat [11]: 65.4% | remaining (%) after reaction with the microsome, Rat ([11]; listed as Compound No. 24): 65.43% | remaining (%) after reaction with the microsome, Human [12]: 62.6% | remaining (%) after reaction with the microsome, Human ([12]; listed as Compound No. 24): 62.6% | Cmax [13]: 153 ng/mL | MRT inf [13]: 7.94 h | Tmax [13]: 0.42 h | half-life [13]: 4.83 h | rate (%) of inhibition, CYP1A2 [14]: 72.8% | rate (%) of inhibition, CYP2D6 [15]: >100% | rate (%) of inhibition, CYP3A4 [16]: 44.1% | rate (%) of inhibition, CYP2C19 [17]: 51.0% | remaining (%) after reaction with the microsome, Dog [18]: 66.9% | remaining (%) after reaction with the microsome, Dog ([18]; listed as Compound No. 24): 66.9% | GI50 [1]: < 1000 nM | remaining (%) after reaction with the microsome, Mouse [19]: 62.1% | remaining (%) after reaction with the microsome, Mouse ([19]; listed as Compound No. 24): 62.1% | IC50 [2]: < 100 nM | IC50 [3]: < 100 nM | IC50 [4]: < 100 nM | IC50 [5]: 100 to 1000 nM | IC50 [6]: 100 to 1000 nM | GI50 [8]: 1000 to 10000 nM | GI50 [9]: < 1000 nM | GI50 [10]: 1000 to 10000 nM
SMILES: COc1cc(OC)c(Cl)c(Nc2ncccc2-c2ncnc(Nc3cnn(C4CCNCC4)c3)n2)c1Cl [Example 24, 4-(2-((2,6-dichloro-3,5-dimethoxyphenyl)amino)pyridin-3-yl)-N-(1-(piperidin-4-yl)-1H-pyrazol-4-yl)-1,3,5-triazin-2-amine]
GI50 [7]: < 1000 nM
